Results as given in publication PMC5651819, “AtSPX1 affects the AtPHR1–DNA-binding equilibrium by binding monomeric AtPHR1 in solution” (Biochemical Journal, 2017).

Biological target: T1, GST–AtSPX1 (Arabidopsis thaliana, UniProt Q8LBH4)
T1 construct: gene SPX1; contains degradation products and free GST
T1 sequence (Q8LBH4 1-256): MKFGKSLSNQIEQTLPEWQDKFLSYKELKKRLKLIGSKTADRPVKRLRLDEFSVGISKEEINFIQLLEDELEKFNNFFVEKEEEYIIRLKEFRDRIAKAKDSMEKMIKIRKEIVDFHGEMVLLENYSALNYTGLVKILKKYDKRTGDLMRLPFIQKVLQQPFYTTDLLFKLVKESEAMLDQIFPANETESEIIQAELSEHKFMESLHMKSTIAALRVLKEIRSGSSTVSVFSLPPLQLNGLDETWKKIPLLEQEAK
Assay: microscale thermophoresis
Details: unreliable; data not shown; some Pi binding to free GST, precise affinity could not be determined

Kd: 5 to 10 mM
Structure (SMILES): O=P(O)(O)O [Pi]
